# Patent US4738979A, “α2 -blocking derivatives of imidazole” (G. D. Searle & Co., priority 1985, dated 1988)
# Molecular target: T1, α2 -adrenergic receptors (Rattus norvegicus, UniProt P22909)
# T1 construct: from tissue; host or cells: rat brain homogenates
# T1 sequence (P22909 1-465): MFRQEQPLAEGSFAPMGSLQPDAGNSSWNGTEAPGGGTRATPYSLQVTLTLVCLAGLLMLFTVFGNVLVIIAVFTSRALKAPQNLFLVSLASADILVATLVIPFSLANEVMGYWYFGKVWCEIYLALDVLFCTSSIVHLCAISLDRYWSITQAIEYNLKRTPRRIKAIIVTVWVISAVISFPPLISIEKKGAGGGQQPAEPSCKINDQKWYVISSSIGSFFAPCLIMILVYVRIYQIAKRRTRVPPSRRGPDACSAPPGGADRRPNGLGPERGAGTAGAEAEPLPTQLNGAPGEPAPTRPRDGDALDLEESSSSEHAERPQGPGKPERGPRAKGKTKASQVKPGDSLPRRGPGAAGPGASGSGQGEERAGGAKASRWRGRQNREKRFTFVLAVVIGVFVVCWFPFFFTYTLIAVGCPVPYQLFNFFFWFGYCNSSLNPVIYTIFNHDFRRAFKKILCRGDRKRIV
# Test: binding to α2-adrenergic receptors on rat brain homogenates (3H-p. aminoclonidine)
# Conditions: 10^-7 M; rat brain homogenates; 0.7 nM 3H-p. aminoclonidine; read-out: % Inhibition of the Specific Binding at 10^-7 M for α2 Recep.
# Description: The activity of the compounds according to the invention with respect to binding of the α-adrenergic receptors was determined in vitro according to a method deriving from the works of B. R. Rouot et al., Life Sci., 25, 769 (1979) and of D. U'Prichard et al., Mol. Pharmacol., 13, 454 (1977). This method consists in measuring the binding to the receptor on rat brain homogenates, by marking by means of a specific tritriated ligand placed in competition with the product to be tested.
# In the presenct case the binding to the α1 -adrenergic receptors was measured by means of 1.6 nM of ^3 H-WB 4101 and the binding to the α2 -adrenergic receptors by means of 0.7 nM of ^3 H-p. aminoclonidine, the non-specific binding being determined by 1,000 nM of phentolamine. The results are given in Table II, column 3, and are expressed in terms of percentage of inhibition of the specific binding of 10^-7 molar compound concentration.
# (2) The specific binding is the total binding less the nonspecific
# binding. The total binding is the binding in the absence of nonradioactiv
# drug. The nonspecific binding is the binding in the presence of 1,000 nM
# of phentolamine. The products of the invention are tested at a
# concentration of 10^-7 molar.
row,SMILES,inhibition at 0.1 µM [%]
1,"c1ccc(C(Cc2c[nH]cn2)c2ccccc2)cc1 [Compound 1, 4(5)-(2,2-diphenylethyl)-imidazole]",89
2,CC(c1c[nH]cn1)C(c1ccccc1)c1ccccc1 (stereo not drawn) [Compound 4],5
3,"Cc1cccc(C(Cc2c[nH]cn2)c2ccccc2)c1 (stereo not drawn) [Compound 9, 4(5)-{[2-(3-methylphenyl)-2-phenyl]ethyl}imidazole]",85
4,Cc1ccccc1C(Cc1c[nH]cn1)c1ccccc1 (stereo not drawn) [Compound 12],71
5,"Clc1ccccc1C(Cc1c[nH]cn1)c1ccccc1 (stereo not drawn) [Compound 13, 4(5)-{[2-(2-chlorophenyl)-2-phenyl]ethyl}imidazole]",81
6,"Fc1ccc(C(Cc2c[nH]cn2)c2ccccc2)cc1 (stereo not drawn) [Compound 14, 4(5)-{[2-(4-fluorophenyl)-2-phenyl]ethyl}imidazole]",69
7,"Fc1ccc(C(Cc2c[nH]cn2)c2ccccc2F)cc1 (stereo not drawn) [Compound 15, 4(5)-{[2-(2-fluorophenyl)-2-(4'-fluorophenyl)]ethyl}imidazole]",77
8,Cc1ccc(C)c(C(Cc2c[nH]cn2)c2ccccc2)c1 (stereo not drawn) [Compound 16],31
9,"COc1ccc(C(Cc2c[nH]cn2)c2ccccc2)cc1 (stereo not drawn) [Compound 17, 4(5)-{[2-(4-methoxyphenyl)-2-phenyl]ethyl}imidazole]",78
10,Cc1ccc(C(Cc2c[nH]cn2)c2ccccc2)cc1 (stereo not drawn) [Compound 21],74

# Same assay, conditions: in vitro binding assay, 10^-7 M
row,SMILES,affinity for α2 receptors (in words)
1,"c1ccc(C(Cc2c[nH]cn2)c2ccccc2)cc1 [Compound 1, 4(5)-(2,2-diphenylethyl)-imidazole]",high affinity
2,"Cc1cccc(C(Cc2c[nH]cn2)c2ccccc2)c1 (stereo not drawn) [Compound 9, 4(5)-{[2-(3-methylphenyl)-2-phenyl]ethyl}imidazole]",high affinity
3,"Clc1ccccc1C(Cc1c[nH]cn1)c1ccccc1 (stereo not drawn) [Compound 13, 4(5)-{[2-(2-chlorophenyl)-2-phenyl]ethyl}imidazole]",high affinity

# Molecular target: T2, α2 -adrenergic receptors (Cavia porcellus, UniProt Q60474)
# T2 construct: from tissue; host or cells: isolated guinea pig ileum
# T2 sequence (Q60474 1-464): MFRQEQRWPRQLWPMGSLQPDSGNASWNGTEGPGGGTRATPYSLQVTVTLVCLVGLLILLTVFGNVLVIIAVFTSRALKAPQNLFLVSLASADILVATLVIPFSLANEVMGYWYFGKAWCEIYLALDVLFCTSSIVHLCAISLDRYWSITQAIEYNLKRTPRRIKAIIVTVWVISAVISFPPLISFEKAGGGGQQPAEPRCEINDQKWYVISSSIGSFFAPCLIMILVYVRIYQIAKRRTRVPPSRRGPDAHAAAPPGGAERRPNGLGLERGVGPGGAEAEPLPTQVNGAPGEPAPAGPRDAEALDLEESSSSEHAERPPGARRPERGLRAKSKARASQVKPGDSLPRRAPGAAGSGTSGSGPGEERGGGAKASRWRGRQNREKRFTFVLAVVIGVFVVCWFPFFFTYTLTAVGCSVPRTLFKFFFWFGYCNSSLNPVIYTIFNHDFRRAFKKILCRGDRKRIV
# Test: α2 antagonist and α2 agonist activity in isolated guinea pig ileum (clonidine)
# Conditions: 50% of maximum inhibition obtained with clonidine, read-out: α2 Agonist Activity (-log ED50) (converted)
# Description: The α2 antagonist and α2 agonist activity of the compounds according to the invention was determined upon isolated organs according to a model described by G. M. Drews, Br. J. Pharmaco., 64, 293-300 (1978).
# This model is based upon the principle that the stimulation of the cholinergic nervous transmissions of the guinea pig ileum causes the liberation of acetyl choline, which in turn causes contractions of the ileum.
# The stimulation of the α2 -adrenergic receptors inhibits the activity of the cholinergic nerve and consequently reduces all response resulting from a timulation of the latter. Thus the contractions of the ileum induced by electric stimulation of the tissue are inhibited by clonidine, an α2 agonist, in proportion to the dose. This inhibition is specifically displaced by the α2 antagonists and not by the α1 antagonists.
# The method utilized can be summarized as follows: three dose-response curves to clonidine are established at an interval of 60 minutes. Two concentrations of the product to be tested are added successively 10 minutes before the realization of the second and third clonidine curves. Next, after washing, a dose-response curve is established with the product to be tested.
# The dose-response curves are calculated as a percentage of the maximum inhibition obtained for the first curve. In this system the products having an α2 antagonist activity displace the dose-response curve to clonidine. The α2 antagonist activity, expressed in pA2 value, shown in column 4, is calculated according to J. M. Van Rossum, Arch. Int. Pharmacodyn., 143, 299-300 (1963).
# A reduction of the contractions induced by the tested product alone indicates an α2 agonist effect. This activity is expressed in--log ED50 (the--logarithm of the concentration of the product giving 50% of the maximum inhibition obtained with clonidine).
# The higher the pA2 value, the higher the α2 antagonist activity; the higher the--log ED50 value (i.e., the pA2 agonist activity), the higher the α2 agonist activity.
row,SMILES,EC50 [µM]
1,"c1ccc(C(Cc2c[nH]cn2)c2ccccc2)cc1 [Compound 1, 4(5)-(2,2-diphenylethyl)-imidazole]",3.16
2,CC(c1c[nH]cn1)C(c1ccccc1)c1ccccc1 (stereo not drawn) [Compound 4],> 3.16
3,"Cc1cccc(C(Cc2c[nH]cn2)c2ccccc2)c1 (stereo not drawn) [Compound 9, 4(5)-{[2-(3-methylphenyl)-2-phenyl]ethyl}imidazole]",2.51
4,Cc1ccccc1C(Cc1c[nH]cn1)c1ccccc1 (stereo not drawn) [Compound 12],3.98
5,"Clc1ccccc1C(Cc1c[nH]cn1)c1ccccc1 (stereo not drawn) [Compound 13, 4(5)-{[2-(2-chlorophenyl)-2-phenyl]ethyl}imidazole]",3.16
6,"Fc1ccc(C(Cc2c[nH]cn2)c2ccccc2)cc1 (stereo not drawn) [Compound 14, 4(5)-{[2-(4-fluorophenyl)-2-phenyl]ethyl}imidazole]",6.31
7,"Fc1ccc(C(Cc2c[nH]cn2)c2ccccc2F)cc1 (stereo not drawn) [Compound 15, 4(5)-{[2-(2-fluorophenyl)-2-(4'-fluorophenyl)]ethyl}imidazole]",5.01
8,Cc1ccc(C)c(C(Cc2c[nH]cn2)c2ccccc2)c1 (stereo not drawn) [Compound 16],2
9,"COc1ccc(C(Cc2c[nH]cn2)c2ccccc2)cc1 (stereo not drawn) [Compound 17, 4(5)-{[2-(4-methoxyphenyl)-2-phenyl]ethyl}imidazole]",10
10,Cc1ccc(C(Cc2c[nH]cn2)c2ccccc2)cc1 (stereo not drawn) [Compound 21],5.01

# Same assay, conditions: versus clonidine, read-out: α2 Antagonist Activity (pA2) (converted)
row,SMILES,Kb [µM]
1,"c1ccc(C(Cc2c[nH]cn2)c2ccccc2)cc1 [Compound 1, 4(5)-(2,2-diphenylethyl)-imidazole]",0.00501
2,CC(c1c[nH]cn1)C(c1ccccc1)c1ccccc1 (stereo not drawn) [Compound 4],0.316
3,"Cc1cccc(C(Cc2c[nH]cn2)c2ccccc2)c1 (stereo not drawn) [Compound 9, 4(5)-{[2-(3-methylphenyl)-2-phenyl]ethyl}imidazole]",0.0158
4,Cc1ccccc1C(Cc1c[nH]cn1)c1ccccc1 (stereo not drawn) [Compound 12],0.0126
5,"Clc1ccccc1C(Cc1c[nH]cn1)c1ccccc1 (stereo not drawn) [Compound 13, 4(5)-{[2-(2-chlorophenyl)-2-phenyl]ethyl}imidazole]",0.01
6,"Fc1ccc(C(Cc2c[nH]cn2)c2ccccc2)cc1 (stereo not drawn) [Compound 14, 4(5)-{[2-(4-fluorophenyl)-2-phenyl]ethyl}imidazole]",0.0158
7,"Fc1ccc(C(Cc2c[nH]cn2)c2ccccc2F)cc1 (stereo not drawn) [Compound 15, 4(5)-{[2-(2-fluorophenyl)-2-(4'-fluorophenyl)]ethyl}imidazole]",0.0158
8,Cc1ccc(C)c(C(Cc2c[nH]cn2)c2ccccc2)c1 (stereo not drawn) [Compound 16],0.1
9,"COc1ccc(C(Cc2c[nH]cn2)c2ccccc2)cc1 (stereo not drawn) [Compound 17, 4(5)-{[2-(4-methoxyphenyl)-2-phenyl]ethyl}imidazole]",0.0126
10,Cc1ccc(C(Cc2c[nH]cn2)c2ccccc2)cc1 (stereo not drawn) [Compound 21],0.0251

# Tested on: peripheral vascular α2 receptors
# Test: inhibition of the pressor effect of BHT 920 in pithed rats
# Format: in vivo, rat
# Conditions: 1 mg/kg i.v., BHT 920 30 μg/kg i.v.
# Description: The α2 antagonist activity of the compounds is evaluated by the inhibition of the pressor effect (blood pressure elevation), of a specific α2 agonist agent, 4H-Thiazolo[4,5-b]azetin-2-amine, 5,6,7,8-tetrahydro-6-(2-propenyl)-, dihydrochloride, designated as BHT 920 at a concentration of 30 μg/kg i.v.) according to a method described by J. C. Van Meel et al., J. Pharmacol. Exp. Ther., 219, 760-767 (1981).
# The compound to be tested is administered at 1 mg/kg i.v. The ability of the compounds tested to antagonize the pressor effects of BHT 920 is determined and expressed as percentage of inhibition. Any direct hypertensive (=α2 agonist) activity of the compounds under test can likewise be detected.
row,SMILES,"α2 antagonist activity, inhibition of pressor effect of BHT 920 (in words)"
1,"c1ccc(C(Cc2c[nH]cn2)c2ccccc2)cc1 [Compound 1, 4(5)-(2,2-diphenylethyl)-imidazole]",very active as α2 antagonist agents
2,CC(c1c[nH]cn1)C(c1ccccc1)c1ccccc1 (stereo not drawn) [Compound 4],very active as α2 antagonist agents
3,"Cc1cccc(C(Cc2c[nH]cn2)c2ccccc2)c1 (stereo not drawn) [Compound 9, 4(5)-{[2-(3-methylphenyl)-2-phenyl]ethyl}imidazole]",very active as α2 antagonist agents
4,Cc1ccccc1C(Cc1c[nH]cn1)c1ccccc1 (stereo not drawn) [Compound 12],very active as α2 antagonist agents
5,"Clc1ccccc1C(Cc1c[nH]cn1)c1ccccc1 (stereo not drawn) [Compound 13, 4(5)-{[2-(2-chlorophenyl)-2-phenyl]ethyl}imidazole]",very active as α2 antagonist agents
6,"Fc1ccc(C(Cc2c[nH]cn2)c2ccccc2)cc1 (stereo not drawn) [Compound 14, 4(5)-{[2-(4-fluorophenyl)-2-phenyl]ethyl}imidazole]",very active as α2 antagonist agents
7,"Fc1ccc(C(Cc2c[nH]cn2)c2ccccc2F)cc1 (stereo not drawn) [Compound 15, 4(5)-{[2-(2-fluorophenyl)-2-(4'-fluorophenyl)]ethyl}imidazole]",very active as α2 antagonist agents
8,"COc1ccc(C(Cc2c[nH]cn2)c2ccccc2)cc1 (stereo not drawn) [Compound 17, 4(5)-{[2-(4-methoxyphenyl)-2-phenyl]ethyl}imidazole]",very active as α2 antagonist agents
9,Cc1ccc(C(Cc2c[nH]cn2)c2ccccc2)cc1 (stereo not drawn) [Compound 21],very active as α2 antagonist agents
